Consider 38 compounds from patent US6574913B2, “Semiochemical and sonic signals for monitoring and control of clothes moths” (priority 2001, dated 2003).

For one experiment, the system named is T. bisselliella antenna. The experiment in a line: Coupled gas chromatographic-electroantennographic detection (GC-EAD). Also on record: species or system Tineola bisselliella. The following applies: for electroantennographic detector (EAD) response to components of squirrel pelt volatile extract: male and gravid female T. bisselliella antenna, 5 pelt-min of squirrel pelt volatile extract; for EAD response to components of female T. bisselliella pheromone gland extract / EAD response to components of male T. bisselliella body extract: male antenna; for EAD response to components of female T. bisselliella pheromone gland extract: one female equivalent; for EAD response to components of male T. bisselliella body extract: one male equivalent, similar responses with female antennae. On the procedure:
Samples of animal pelt (150 cm^2) were aerated for one week in a cylindrical Pyrex glass chamber. A water-aspirator was used to draw charcoal-filtered, humidified air at 2 L/min through the chamber and a glass column (14 cm×13 mm O. D.) filled with Porapak Q. Volatiles captured on Porapak Q were eluted with 5 ml of redistilled pentane and the eluent concentrated to 2 ml by distillation in a 30 cm Dufton column, adjusting the volatile extract so that 2 μl equalled 5 pelt-min of volatile collection. Aliquots of 2.5 pelt-min equivalents of Porapak Q-captured volatile extracts were analysed by coupled gas chromatographic-electroantennographic detection (GC-EAD) (28) (FIG. 2).
FIG. 2 illustrates flame ionization detector (FID) and electroantennographic detector (EAD ♂: male T. bisselliella antenna; EAD ♀: gravid female T. bisselliella antenna) responses to 5 pelt-min of squirrel pelt volatile extract. Chromatography: Hewlett Packard (HP) 5890A gas chromatograph equipped with a fused silica column (30 m×0.25 mm ID) coated with DB-5; linear flow velocity of carrier gas: 35 cm/sec; injector and FID detector temperature: 240° C.; temperature program: 1 min at 50° C., 20° C./min to 70° C. then 7.5° C./min to 280° C. (J & W Scientific, Folsom, Calif. 95630). EAD-active compounds were analyzed by GC-mass spectrometry (MS) in full scan electron impact (EI) and chemical ionization (isobutane) (CI) modes, using a Varian Saturn II Ion Trap GC-MS and a HP 5985B GC-MS. Antennally-active compounds were identified as follows: 1. hexanal (20.0); 2. heptanal (35.0); 3. octanal (55.0); 4. nonanal (80.0); 5. decanal (20.0); 6. dodecanal (4.0); 7. tridecanal (6.0); 8. tetradecanal (5.0); 9. pentadecanal (0.8); 10. hexadecanal (1.0); 11. heptadecanal (0.7); 12. octadecanal (0.1); 13. heptanol (10.0); 14. nonanol (10.0); 15. decanol (12.0); 16. undecanol (200.0); 17. dodecanol (10.0); 18. tridecanol (70.0); 19. tetradecanol (3.0); 20. pentadecanol (2.0); 21. hexadecanol (0.3); 22. heptadecanol (0.5); 23. octadecanol (0.1); 24. tetradecane (20.0); 25. pentadecane (100.0); 26. hexadecane (100.0); 27. eicosane (20.0); 28. uneicosane (0.7); 29.2-undecanal (4.0); 30. E2-nonenal (9.0); 31. E2-decenal (11.0); 32. geranylacetone (1.0). Numbers in brackets refer to nanogram quantities present in 15 pelt-min of aeration of dried, untanned animal pelt (150 cm^2).
The bodies of two hundred 24-48 hour old virgin male T. bisselliella were extracted for 15 min in methanol.
FIG. 6 illustrates flame ionization detector (FID) and electroantennographic detection (EAD: male T. bisselliella antenna) responses to one male equivalent of male T. bisselliella body extract. EAD-active compounds 1-3 were identified by GC-mass spectrometry as 1. hexadecanoic acid methyl ester; 2. (Z)-9-hexadecenoic acid methyl ester; and 3. octadecanoic acid methyl ester. […] Chromatography: Hewlett Packard (HP) 5890A gas chromatograph equipped with a fused silica column (30 m×0.32 mm ID) coated with DB-23 (J & W Scientific, Folsom, Calif. 95630); linear flow velocity of carrier gas: 35 cm/sec; injector and FID detector temperature: 240° C.; temperature program: 1 min at 50° C., 10° C./min to 200° C. EAD-active compounds were identified by GC-mass spectrometry (MS) in full scan electron impact (EI) mode using a Varian Saturn II Ion Trap GC-MS.
Terminal abdominal segments with pheromone glands of one-hundred 12-48 hour-old virgin females were severed and extracted for 5-15 min in hexane.
FIG. 10 illustrates flame ionization detector (FID) and electroantennographic detector (EAD: male T. bisselliella antenna) responses to one female equivalent of female T. bisselliella pheromone gland extract. EAD-active compounds 1-3 were identified as 1. (E,Z)-2,13:octadecadienol (E2,Z13-18:OH) and 2. (E,Z)-2,13:octadecadienal (E2,Z13-18:Ald). […]

Experiment [1] deals with T. bisselliella. The experiment is described as follows: Arena bioassay: captures of moths on sticky traps baited with test or control stimuli. The format is in vivo, Tineola bisselliella. Particulars: for trap captures of males, attraction by synthetic female pheromone components: Exps. 34-37, tested together in various ratios; for trap captures, attraction by synthetic male pheromone components: Exps. 29-31, 16:Ester 480 ng plus Z9-16:Ester 840 ng tested together; for trap captures versus dried muskrat pelt: geranylacetone (44 ng) and nonanal (3.5 μg) tested together, equivalent quantities, female or male moths. On the procedure:
Tactic responses of T. bisselliella to volatile stimuli from larval habitat were assessed in a closed cylindrical Plexiglas container (125 cm diameter, 60 cm height). Thin cardboard discs (10 cm diameter) coated with Tanglefoot on the upper side were placed on the arena floor 80 cm apart from each other. Platforms suspended above the centre of the coated discs supported randomly assigned test or control stimuli. Control stimuli consisted of cardboard silhouettes visually resembling test stimuli. Per experiment 10 replicates with 25 adult moths each were employed. Moths were released during the scotophase from a Petri dish in the centre of the arena after 30-min of acclimation. After 12 hours of experimental time, moths captured on sticky discs (FIG. 1) were recorded as responders and statistically analysed.

The test system of experiment [2] is T. bisselliella. Particulars: literature refs 16, 17; cited from earlier work.

Each structure is given as a SMILES string.

Consider `CCCCCCCCCC(C)=O` [2-undecanal], for which, in the experiment with T. bisselliella antenna, the “electroantennographic detector (EAD) response to components of squirrel pelt volatile extract” value (shortened to “electroantennographic detector”) is “Antennally-active”.
As for `CCCC/C=C\CCCCCCCCC/C=C/C=O` [(E,Z)-2,13:octadecadienal], the “trap captures of males, attraction by synthetic female pheromone components” value in the experiment on T. bisselliella [1] is listed as “attracted male T. bisselliella”. Besides, in the experiment on T. bisselliella [2], the “attractiveness as reported sex pheromone components” value is “only moderately attractive”. In addition, the “EAD response to components of female T. bisselliella pheromone gland extract” value in the experiment with T. bisselliella antenna is reported as “EAD-active”.
Consider `CCCC/C=C\CCCCCCCCC/C=C/CO` [(E,Z)-2,13:octadecadienol], for which the “trap captures of males, attraction by synthetic female pheromone components” value in the experiment on T. bisselliella [1] was “attracted male T. bisselliella”. For the same compound, the “EAD response to components of female T. bisselliella pheromone gland extract” value with T. bisselliella antenna is given as “EAD-active”.
Regarding `CCCCCC/C=C\CCCCCCCC(=O)OC` [(Z)-9-hexadecenoic acid methyl ester], the “trap captures, attraction by synthetic male pheromone components” value in the experiment with T. bisselliella [1] was “attracted both male and virgin female T. bisselliella”. For the same compound, in the experiment on T. bisselliella antenna, the “EAD response to components of male T. bisselliella body extract” value is “EAD-active”.
For the compound `CCCCCCC/C=C/C=O` [E2-decenal], the “electroantennographic detector” value in the experiment on T. bisselliella antenna is reported as “Antennally-active”.
Still for that read-out and setting: the result for `CCCCCC/C=C/C=O` [E2-nonenal] reads “Antennally-active”.
Regarding `CCCCCCCCCCCCCCC/C=C/C=O` [E2-octadecenal, reference compound], the “attractiveness as reported sex pheromone components” value in the experiment with T. bisselliella [2] was “only moderately attractive”.
In the case of `CCCCCCCCCC=O` [decanal], the “electroantennographic detector” value with T. bisselliella antenna is reported as “Antennally-active”.
On to `CCCCCCCCCCO` [decanol], for which, in the experiment on T. bisselliella antenna, the “electroantennographic detector” value is recorded as “Antennally-active”.
On the same count and under the same terms, the entry for `CCCCCCCCCCCC=O` [dodecanal] is “Antennally-active”.
The same measure, in the same setting: the result for `CCCCCCCCCCCCO` [dodecanol] reads “Antennally-active”; that for `CCCCCCCCCCCCCCCCCCCC` [eicosane], “Antennally-active”.
Turning to `CC(=O)CC/C=C(\C)CCC=C(C)C` [geranylacetone], the “trap captures versus dried muskrat pelt” value with T. bisselliella [1] is on record as “more attractive than natural (muskrat) pelt”. In the experiment on T. bisselliella antenna, the “electroantennographic detector” value is listed as “Antennally-active”.
`CCCCCCCCCCCCCCCCC=O` [heptadecanal]: in the experiment on T. bisselliella antenna, the “electroantennographic detector” value is on record as “Antennally-active”.
On the same count and under the same terms, the entry for `CCCCCCCCCCCCCCCCCO` [heptadecanol] is “Antennally-active”; for `CCCCCCC=O` [heptanal] it is “Antennally-active”.
Same read-out and setting: the result for `CCCCCCCO` [heptanol] reads “Antennally-active”.
Same read-out and setting: the result for `CCCCCCCCCCCCCCCC=O` [hexadecanal] reads “Antennally-active”; that for `CCCCCCCCCCCCCCCC` [hexadecane], “Antennally-active”.
Turning to `CCCCCCCCCCCCCCCC(=O)OC` [hexadecanoic acid methyl ester], the “trap captures, attraction by synthetic male pheromone components” value in the experiment on T. bisselliella [1] is “attracted both male and virgin female T. bisselliella”. Moreover, in the experiment with T. bisselliella antenna, the “EAD response to components of male T. bisselliella body extract” value is “EAD-active”.
For `CCCCCCCCCCCCCCCCO` [hexadecanol], the “electroantennographic detector” value with T. bisselliella antenna is reported as “Antennally-active”.
As to `CCCCCC=O` [hexanal], in the experiment on T. bisselliella antenna, the “electroantennographic detector” value was “Antennally-active”.
`CCCCCCCCC=O` [nonanal]: the “trap captures versus dried muskrat pelt” value in the experiment with T. bisselliella [1] is “more attractive than natural (muskrat) pelt”. Further, the “electroantennographic detector” value in the experiment on T. bisselliella antenna is “Antennally-active”.
For `CCCCCCCCCO` [nonanol], the “electroantennographic detector” value with T. bisselliella antenna is reported as “Antennally-active”.
In the case of `CCCCCCCCCCCCCCCCCC=O` [octadecanal], the “electroantennographic detector” value with T. bisselliella antenna was “Antennally-active”.
Take `CCCCCCCCCCCCCCCCCC(=O)OC` [octadecanoic acid methyl ester]: the “EAD response to components of male T. bisselliella body extract” value in the experiment with T. bisselliella antenna was “EAD-active”.
In the case of `CCCCCCCCCCCCCCCCCCO` [octadecanol], the “electroantennographic detector” value in the experiment with T. bisselliella antenna is reported as “Antennally-active”.
On to `CCCCCCCC=O` [octanal], for which, in the experiment on T. bisselliella antenna, the “electroantennographic detector” value is recorded as “Antennally-active”.
Same read-out and setting: the result for `CCCCCCCCCCCCCCC=O` [pentadecanal] reads “Antennally-active”.
As to `CCCCCCCCCCCCCCC` [pentadecane], in the experiment on T. bisselliella antenna, the “electroantennographic detector” value is recorded as “Antennally-active”.
`CCCCCCCCCCCCCCCO` [pentadecanol]: the “electroantennographic detector” value with T. bisselliella antenna is given as “Antennally-active”.
Regarding `CCCCCCCCCCCCCC=O` [tetradecanal], the “electroantennographic detector” value in the experiment with T. bisselliella antenna is given as “Antennally-active”.
The same measure, in the same setting: the result for `CCCCCCCCCCCCCC` [tetradecane] reads “Antennally-active”; that for `CCCCCCCCCCCCCCO` [tetradecanol], “Antennally-active”; that for `CCCCCCCCCCCCC=O` [tridecanal], “Antennally-active”.
Regarding `CCCCCCCCCCCCCO` [tridecanol], in the experiment with T. bisselliella antenna, the “electroantennographic detector” value is reported as “Antennally-active”.
Same read-out and setting: the result for `CCCCCCCCCCCO` [undecanol] reads “Antennally-active”; that for `CCCCCCCCCCCCCCCCCCCCC` [uneicosane], “Antennally-active”.
